Measured values: patent US5674886A, “Triazolylated teritiary amine compound or salt thereof” (Yamanouchi Pharmaceutical Co., Ltd., priority 1991, dated 1997)

Experiments:
aldosterone production = test: In vivo inhibition of aldosterone production in rats (ACTH-stimulated blood aldosterone); parameters: species or system rat; conditions: 100 mg/kg, five rats, one-way ANOVA
Method: (b) In vivo inhibition of aldosterone production in rats:
The inhibitory activity was measured in accordance with the method described in J. Steroid Biochem., 34 567 (1989). The inhibitory activity of a test compound was determined based on inhibition of the blood aldosterone to be increased by stimulation by ACTH in rats. The amount of aldosterone was measured by RIA.
3. In vivo inhibition of aldosterone production in rats:
By the above-mentioned experimental method (4-b), aldosterone production inhibitory activity in rats was measured.
The statistical significance of value was analyzed by using one-way ANOVA. The results mean that the compounds of the present invention are highly safe compounds with few harmful side effects also in the in vivo test as well.

[1] = tested on: cortisol production, rabbit adrenal cultured cells; test: In vitro inhibition of cortisol production (ACTH-stimulated rabbit adrenal cultured cells); type: cell-based; conditions: Oryctolagus cuniculus
Method: (5) In vitro inhibition of cortisol production:
The inhibitory activity was measured in accordance with the method described in Endocrinology, 114 (2) 486 (1984). The inhibitory activity of a test compound was determined based on inhibition of the cortisol production produced by stimulation of first-generation of rabit adrenal cultured cells by ACTH. The amount of cortisol was measured by RIA.
4. In vitro inhibition of cortisol production in rabbit:
IC50 value of the compounds for in vitro inhibition of cortisol production was obtained by the above-mentioned experimental method (5), and the results obtained are shown in Table 3.

[2] = target: T1, aromatase from human placental microsomes (Homo sapiens, UniProt P11511); test: In vitro inhibition of aromatase in human placenta microsomes; type: biochemical; conditions: [1,2-3H] androstenedione
T1 construct: in human placenta microsomes; from tissue; host or cells: human placenta, microsomes
T1 sequence (P11511 1-503): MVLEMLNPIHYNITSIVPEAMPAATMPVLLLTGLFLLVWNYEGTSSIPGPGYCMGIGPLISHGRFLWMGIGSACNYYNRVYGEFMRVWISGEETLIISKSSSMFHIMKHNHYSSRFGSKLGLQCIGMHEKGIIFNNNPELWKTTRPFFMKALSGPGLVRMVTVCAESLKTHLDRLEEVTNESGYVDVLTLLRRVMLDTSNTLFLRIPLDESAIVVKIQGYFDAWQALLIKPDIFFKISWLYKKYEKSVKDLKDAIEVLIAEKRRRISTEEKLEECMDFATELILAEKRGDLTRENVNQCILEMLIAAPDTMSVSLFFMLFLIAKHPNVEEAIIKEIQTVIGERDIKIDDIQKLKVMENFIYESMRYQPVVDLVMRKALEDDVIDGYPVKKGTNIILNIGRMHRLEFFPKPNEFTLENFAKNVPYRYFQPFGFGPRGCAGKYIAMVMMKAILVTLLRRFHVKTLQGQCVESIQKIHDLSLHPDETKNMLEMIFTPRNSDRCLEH
Method: (b) Inhibition of aromatase obtained from human placenta
The activity was measured in accordance with the method described in Endocrine Research, 16 (2) 253 (1990).
The inhibition activity of the compound was determined based on the inhibition of ^3 H2 O to be released from [1,2-^3 H] androstenedione in human placenta microsomes.
1. In vitro inhibition of aromatase in human placenta microsomes:
IC50 value for ex vivo inhibition of aromatase from human placental microsomes was obtained in accordance with the above-mentioned experimental method (1-b), and the results obtained are shown in Table 1.

[3] = tested on: aldosterone production, rat adrenal cultured cells; test: In vitro inhibition of aldosterone production (ACTH-stimulated rat adrenal cultured cells); type: cell-based; conditions: read-out: IC50, Rat aldosterone inhibitory activity (B)
Method: (a) In vitro inhibition of aldosterone production:
The activity was measured in accordance with the method described in J. Vet. Pharmacol. Therap., 11 345 (1988). The inhibition activity of the test compound was determined based on the inhibition of aldosterone production produced by stimulation of first-generation of rat adrenal cultured cells by ACTH. The amount of aldosterone was measured by RIA.
(§1) 2. Selectivity of In vitro inhibition of rat ovarian aromatase and in vitro aldosterone production in rat:
(§2) IC50 values for in vitro inhibition of rat aromatase and […] inhibition of rat aldosterone production were measured in accordance with the above-mentioned experimental methods (1-a) and (4-a), respectively. The selectivity indicates a ratio of IC50 value for rat aldosterone production to IC50 value for rat aromatase.

[4] = target: T2, rat aromatase (rat ovarian microsomes) (Rattus norvegicus, UniProt P22443); test: In vitro inhibition of aromatase obtained from rat ovary; type: biochemical
T2 construct: in rat ovarian microsomes; from tissue; host or cells: rat ovary, microsomes
T2 sequence (P22443 1-508): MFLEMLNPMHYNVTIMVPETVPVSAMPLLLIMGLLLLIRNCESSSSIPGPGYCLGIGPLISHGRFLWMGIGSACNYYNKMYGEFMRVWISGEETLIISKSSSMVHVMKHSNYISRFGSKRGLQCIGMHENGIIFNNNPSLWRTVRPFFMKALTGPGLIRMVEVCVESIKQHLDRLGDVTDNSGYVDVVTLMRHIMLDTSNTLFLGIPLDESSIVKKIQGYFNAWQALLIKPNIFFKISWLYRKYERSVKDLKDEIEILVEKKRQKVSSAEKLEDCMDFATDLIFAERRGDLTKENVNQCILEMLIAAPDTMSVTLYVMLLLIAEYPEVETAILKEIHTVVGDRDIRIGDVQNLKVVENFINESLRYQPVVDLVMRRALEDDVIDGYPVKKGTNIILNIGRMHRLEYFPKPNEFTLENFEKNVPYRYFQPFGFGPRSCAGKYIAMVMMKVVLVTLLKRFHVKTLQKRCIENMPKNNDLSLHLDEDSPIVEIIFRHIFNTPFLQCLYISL
Method: (a) Inhibition of aromatase obtained from rat ovary:
The activity was measured in accordance with the method described in J. Biol. Chem., 249 5364 (1974).
The IC50 value of the test compound on aromatase inhibition was determined based on inhibition of ^3 H2 O to be released from [1,2-^3 H] androstenedione in rat ovarian microsomes.
as §1, §2

[5] = Metabolism: plasma concentration of the non-changed compound after oral administration to rats; type: in vivo; conditions: rat, 3 mg/kg oral
From the text: From the results, it is understood that the compound of the present invention has an excellent oral absorbability and that the effect of the absorbed compound lasts long. Thus, the compound has a good profile as a medicine.

IC50 [2] [nM] | IC50 [3] [nM] | IC50 ([4]; rat ovarian microsomes, in vitro, read-out: IC50, Rat aromatase inhibitory activity (A)) [nM] | Selectivity (B/A) ([4]; ratio of IC50 for rat aldosterone production to IC50 for rat aromatase) | half-life ([5]; read-out: extinction half time (T1/2) (converted)) [h] | Cmax ([5]; read-out: maximum value (Cmax) of the concentration of the non-changed compound in the plasma) [ng/mL] | Compound | inhibition of aldosterone production in rats (significance) (aldosterone production) | IC50 [1] [nM]
0.03 |  |  |  |  |  | O=[N+]([O-])c1ccc(N(Cc2ccc(Br)cc2)n2cnnc2)cc1 [Example 12, 4-[N-(4-bromobenzyl)-N-(4-nitrophenyl)amino]-4H-1,2,4-triazole] | did not inhibit aldosterone production significantly | 
0.13 | 2250 | 0.37 | 6100 | 11 | 2880 | N#Cc1ccc(N(Cc2ccc(Br)cc2)n2cnnc2)cc1 [Example 15, 4-[N-(4-bromobenzyl)-N-(4-cyanophenyl)amino]-4H-1,2,4-triazole] | did not inhibit aldosterone production significantly | 4000

Compound | IC50 [2] [nM] | IC50 [3] [nM] | IC50 ([4]; rat ovarian microsomes, in vitro, read-out: IC50, Rat aromatase inhibitory activity (A)) [nM] | Selectivity (B/A) ([4]; ratio of IC50 for rat aldosterone production to IC50 for rat aromatase) | half-life ([5]; read-out: extinction half time (T1/2) (converted)) [h] | Cmax ([5]; read-out: maximum value (Cmax) of the concentration of the non-changed compound in the plasma) [ng/mL] | inhibition of aldosterone production in rats (significance) (aldosterone production) | IC50 [1] [nM]
O=[N+]([O-])c1ccc(CN(c2ccc([N+](=O)[O-])cc2)n2cnnc2)cc1 [Example 10, 4-[N-(4-nitrobenzyl)-N-(4-nitrophenyl)amino]-4H-1,2,4-triazole] | 0.11 |  |  |  |  |  | did not inhibit aldosterone production significantly | 7000
